A short description of data set [1]: Plasma KBU2046 concentration after dosing in chow. The format is in vivo, athymic mice. The settings on record: Balb/c athymic, mouse, oral. As for the experimental part:
Cohorts of N=12 athymic mice bearing human PCa PC3-M cell orthotopic implants (a), or of N=5 non-tumor bearing athymic mice (b), were treated with KBU2046 incorporated into chow, and resultant lung metastasis (a) or plasma KBU2046 concentration (b) measured. Values are the mean±SEM. The relationship between dose and metastasis was evaluated by two-sided ANOVA (a). FIG. 2c a comprehensive characterization of KBU2046 pharmacokinetics. CD1 mice were dosed with 100 mg KBU2046/kg via oral gavage or intravenous injection (iv), and blood collected at the indicated time points (data from mice dosed at 25 mg/kg are in FIG. 12, and corroborate 100 mg/kg findings). For each route and time point, N=3 mice were sampled. Individual data points are the resultant plasma concentrations from individual mice, and are the mean of N=2 measurements. The dotted horizontal line denotes a concentration of 24 nM, which was the concentration of KBU2046 measured in the blood of mice whose metastasis were suppressed by 92% (a-b). […]
KBU2046 Quantification and Pharmacokinetics. […]
Plasma KBU2046 concentrations were measured in duplicate by liquid chromatography-tandem mass spectrometry after sample preparation by solid-phase extraction. […] The mass-to-charge ratios of the precursor-to-product ion reactions monitored were 243.5→125.1 for KBU2046 and 257.0→165.0 for the internal standard. […]

The nature of data set [2]: Examination of organ function after a single intravenous dose. The format is in vivo. To be noted: single IV dose 15, 75 or 125 mg/kg, day 8 and 14. Here is the method: Histologic examination of tissue. Organs of athymic male mice stained with H&E, Trichrome or Giemsa were microscopically examined by a mouse pathologist in a blinded fashion, and toxicity scored using an established semi-quantitative histological scoring system (Knodell, R. G. et al., Hepatology 1, 431-5 (1981)) (FIG. 14). The following clinical chemistry parameters were measured in blood of CD1 male and female mice by Charles River Research Animal Diagnostic Services: cholesterol, triglycerides, alanine aminotransferase (ALT), aspartate aminotransferase (AST), total bilirubin, glucose, phosphorus, total protein, calcium, blood urea nitrogen (BUN), creatinine, albumin, Na, K, Cl, white blood cells (with differential), red blood cells, hemoglobin, and platelets.
For examination of organ function, studies used cohorts of 22-24 gm N=3 female and N=3 male (i.e., N=6 mice total per dose cohort) CD1 (ICR) mice (Charles River). […] On day 8 and 14, important organs were weighed, and the following parameters measured in blood: cholesterol, triglycerides, alanine aminotransferase (ALT), aspartate aminotransferase (AST), total bilirubin, glucose, phosphorus, total protein, calcium, blood urea nitrogen (BUN), creatinine, albumin, Na, K, Cl, white blood cells (with differential), red blood cells, hemoglobin, platelets.

The subject of a further data set is human prostate cells. The experiment in a line: Three day cell growth inhibition, human prostate cells. The format is cell-based. To be noted: 3 days growth inhibition. The source says:
(§1) FIG. 1a is a schematic flow of probe synthesis and development strategy. […] Values are mean±SEM of a single experiment in replicates of N=4, with similar findings in multiple separate experiments (also N=4). […] Values are mean±SEM of a single experiment in replicates of N=24, with similar findings in a separate experiment (also N=24). *Denotes Student's t test P value <0.05, compared to controls. […] Values are mean±SEM from N>2 separate experiments, each in replicates of N=3. […] Values are the mean±SD number of total, CFU-GM, CFU-GEMM or BFU-E colonies at 14 days after treatment with KBU2046, from a single experiment in replicates of N=2. […] Values are the mean±SD of a single experiment, with similar results seen in a separate experiment, both in replicates of N=2.
Assays were in replicates of N=3, and were repeated.

The subject of data set [3] is human prostate, breast, colon and lung cancer cells. The experiment in a line: Single cell migration (motility) assay. The format is cell-based. To be noted: 10 μM, 3 days.
Text: as §1
Cell Migration Assays. Single cell motility assays were conducted by adding 10^4 cells to 35 mm tissue culture dishes (BD Falcon) coated with collagen I (BD Biosciences), incubating at 37° C. in 5% CO2, performing time-lapse imaging using a Biostation (Nikon Instruments), tracking the path of N≥35 cells using ImageJ software and the Manual Tracker plug-in, and using Chemotaxis and Migration Tool plug-in for data analysis.

The results in this text go back to patent US20210293825A1, “METHODS FOR PRECISION THERAPEUTIC TARGETING OF HUMAN CANCER CELL MOTILITY AND KITS THEREOF” (UNITED STATES GOVERNMENT AS REPRESENTED BY THE DEPARTMENT …, priority 2018, published 2021).

Structures are written as SMILES. Like-named read-outs stand apart in the source and are kept apart here.

Turning to `O=C1c2ccccc2OCC1c1ccc(F)cc1` (racemic) [KBU2046, (±)-3(4-fluorophenyl)chroman-4-one], the concentration at 35 days in data set [1] (doses that decreased metastasis, read-out: plasma concentrations) was 1.1 to 24 nM; in data set [1] (read-out: concentration in blood of mice whose metastasis were suppressed by 92%), 24 nM. Moreover, the “organ weights and blood parameters” value in data set [2] is reported as “No abnormal alterations in any of these parameters were observed”. Further, the “toxicity to human prostate cells” value with human prostate cells is listed as “not toxic”. Moreover, the “inhibition of cell migration” value in data set [3] is “inhibited the migration”.
